Test results taken from patent US20210255193A1, “LYSINE REACTIVE PROBES AND USES THEREOF” (The Scripps Research Institute, priority 2017, published 2021).

Assays:
Assay in all cases: competitive isoTOP-ABPP
Format in all cases: binding
[1] = molecular target: T1, WARS Tryptophan--tRNA ligase, cytoplasmic (Homo sapiens, UniProt P23381); details: for isoTOP-ABPP ratio (R) at liganded lysine P23381_K256: sol, 231
T1 construct: isoTOP-ABPP experiments performed in cell lysates (in vitro); endogenous in cells; host or cells: soluble proteome of human cancer cell lines (MDA-MB-231; Ramos and Jurkat also prepared)
T1 sequence (P23381 1-471): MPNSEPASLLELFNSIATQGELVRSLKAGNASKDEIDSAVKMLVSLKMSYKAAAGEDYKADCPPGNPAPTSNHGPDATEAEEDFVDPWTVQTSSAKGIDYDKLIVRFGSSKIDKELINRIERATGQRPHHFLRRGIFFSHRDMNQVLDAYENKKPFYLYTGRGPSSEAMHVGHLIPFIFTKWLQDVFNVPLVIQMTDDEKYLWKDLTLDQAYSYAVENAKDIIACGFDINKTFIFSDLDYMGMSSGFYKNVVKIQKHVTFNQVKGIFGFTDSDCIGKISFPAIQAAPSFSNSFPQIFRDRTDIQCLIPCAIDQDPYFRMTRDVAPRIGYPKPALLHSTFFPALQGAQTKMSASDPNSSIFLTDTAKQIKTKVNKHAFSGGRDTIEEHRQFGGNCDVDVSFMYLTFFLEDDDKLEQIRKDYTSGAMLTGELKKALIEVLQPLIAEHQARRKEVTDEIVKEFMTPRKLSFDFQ
Summary of the method: (§1)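 Fragments at 50 μM (activated esters) or 100 μM (guanidinylating agents) were incubated with 0.5 ml lysate before probe labeling. After 0.1 mM STP-alkyne for 1 h, samples were clicked to isotopically distinct TEV tags, and R taken as DMSO-over-compound MS1 peak-area ratio.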

[2] = molecular target: T2, ENOPH1 Enolase-phosphatase E1 (Homo sapiens, UniProt Q9UHY7); details: for isoTOP-ABPP ratio (R) at liganded lysine Q9UHY7_K111: sol, 231
T2 construct: endogenous in cells; host or cells: MDA-MB-231 (soluble fraction of lysate)
Summary of the method: as §1

[3] = molecular target: T3, G6PD Glucose-6-phosphate 1-dehydrogenase (Homo sapiens, UniProt P11413); details: for isoTOP-ABPP ratio (R) at liganded lysine P11413_K171: sol, 231
T3 construct: isoTOP-ABPP experiments performed in cell lysates (in vitro); endogenous in cells; host or cells: MDA-MB-231 soluble lysate
Summary of the method: as §1

LMNA Prelamin-A/C = molecular target: T4, LMNA Prelamin-A/C (Homo sapiens, UniProt P02545); details: for isoTOP-ABPP ratio (R) at liganded lysine P02545_K135: sol, 231
T4 construct: isoTOP-ABPP experiments performed in cell lysates (in vitro); endogenous in cells; host or cells: MDA-MB-231 soluble lysate
T4 sequence (P02545 1-664): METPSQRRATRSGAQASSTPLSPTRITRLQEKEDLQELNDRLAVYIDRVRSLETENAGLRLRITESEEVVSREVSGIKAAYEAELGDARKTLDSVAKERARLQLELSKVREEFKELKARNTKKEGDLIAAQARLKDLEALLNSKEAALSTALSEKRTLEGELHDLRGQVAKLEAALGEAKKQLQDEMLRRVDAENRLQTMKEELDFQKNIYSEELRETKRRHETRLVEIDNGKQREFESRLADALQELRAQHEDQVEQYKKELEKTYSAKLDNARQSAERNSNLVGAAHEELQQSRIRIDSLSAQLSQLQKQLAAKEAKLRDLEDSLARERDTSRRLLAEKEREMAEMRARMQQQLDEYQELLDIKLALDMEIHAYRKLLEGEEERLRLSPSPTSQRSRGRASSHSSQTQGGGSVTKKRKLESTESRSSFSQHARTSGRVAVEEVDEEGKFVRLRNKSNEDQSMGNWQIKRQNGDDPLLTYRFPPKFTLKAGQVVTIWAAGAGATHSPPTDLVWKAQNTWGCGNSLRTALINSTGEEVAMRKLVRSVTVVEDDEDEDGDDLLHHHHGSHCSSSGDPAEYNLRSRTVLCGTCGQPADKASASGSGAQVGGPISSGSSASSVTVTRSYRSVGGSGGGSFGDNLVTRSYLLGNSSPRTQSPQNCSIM
Summary of the method: as §1

T2 sequence (Q9UHY7 whole entry): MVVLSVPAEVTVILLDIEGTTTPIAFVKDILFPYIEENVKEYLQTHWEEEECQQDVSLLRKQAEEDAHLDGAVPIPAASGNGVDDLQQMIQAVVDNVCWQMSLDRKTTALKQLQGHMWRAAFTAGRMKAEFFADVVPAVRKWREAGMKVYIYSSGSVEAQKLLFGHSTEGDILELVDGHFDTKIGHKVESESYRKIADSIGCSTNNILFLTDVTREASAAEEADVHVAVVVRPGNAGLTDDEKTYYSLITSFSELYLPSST
T3 sequence (P11413 whole entry): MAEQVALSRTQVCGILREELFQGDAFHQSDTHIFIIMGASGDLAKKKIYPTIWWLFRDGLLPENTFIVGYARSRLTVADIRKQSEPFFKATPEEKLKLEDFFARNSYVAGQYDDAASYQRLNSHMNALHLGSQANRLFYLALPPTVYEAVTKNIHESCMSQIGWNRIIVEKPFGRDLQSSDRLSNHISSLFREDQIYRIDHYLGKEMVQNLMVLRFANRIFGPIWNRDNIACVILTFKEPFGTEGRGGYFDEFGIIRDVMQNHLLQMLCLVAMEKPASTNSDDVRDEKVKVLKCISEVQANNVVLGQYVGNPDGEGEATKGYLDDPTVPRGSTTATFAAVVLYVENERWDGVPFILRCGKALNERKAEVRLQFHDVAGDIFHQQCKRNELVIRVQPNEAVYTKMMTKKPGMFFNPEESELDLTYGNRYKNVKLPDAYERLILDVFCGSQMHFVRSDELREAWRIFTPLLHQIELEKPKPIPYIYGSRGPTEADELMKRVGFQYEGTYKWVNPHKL

| Structure (SMILES) | isoTOP-ABPP ratio (R) at liganded lysine P23381_K256 ([1]; 50 uM, in vitro) | isoTOP-ABPP ratio (R) at liganded lysine Q9UHY7_K111 ([2]; 50 uM, in vitro) | isoTOP-ABPP ratio (R) at liganded lysine P11413_K171 ([3]; 50 uM, in vitro) | isoTOP-ABPP ratio (R) at liganded lysine P02545_K135 (LMNA Prelamin-A/C; 50 uM, in vitro) | also measured |
| --- | --- | --- | --- | --- | --- |
| CC(C)(C)OC(=O)NCCCC(=O)Oc1ccc([N+](=O)[O-])cc1[N+](=O)[O-] [fragment 41, 2,4-Dinitrophenyl 4-((tert-butoxycarbonyl)amino)butanoate] | 0.9 | 1.1 | 1.0 | 1.1 |  |
| O=C(Oc1ccc([N+](=O)[O-])cc1[N+](=O)[O-])C1CCN(C(=O)OCc2ccccc2)CC1 [fragment 34, 1-Benzyl 4-(2,4-dinitrophenyl) piperidine-1,4-dicarboxylate] | 1.0 | 0.9 | 0.9 | 1.2 |  |
| O=C(CCc1cn(-c2ccccc2)nc1-c1ccccc1)Oc1ccc([N+](=O)[O-])cc1[N+](=O)[O-] [fragment 29, 2,4-Dinitrophenyl 3-(1,3-diphenyl-1H-pyrazol-4-yl)propanoate] |  |  |  |  | isoTOP-ABPP reactivity ratio at lysine P23381_K256 ([1]; 50 uM, 231 sol, in vitro): 0.9; isoTOP-ABPP reactivity ratio at lysine Q9UHY7_K111 ([2]; 50 uM, 231 sol, in vitro): 0.8; isoTOP-ABPP reactivity ratio at lysine P11413_K171 ([3]; 50 uM, 231 sol, in vitro): 0.9; isoTOP-ABPP reactivity ratio at lysine P02545_K135 (LMNA Prelamin-A/C; 50 uM, 231 sol, in vitro): 1.0 |
| Cn1cc(CC(=O)Oc2ccc([N+](=O)[O-])cc2[N+](=O)[O-])c2ccccc21 [fragment 32, 2,4-Dinitrophenyl 2-(1-methyl-1H-indol-3-yl)acetate] |  |  |  |  | isoTOP-ABPP reactivity ratio at lysine P23381_K256 ([1]; 50 uM, 231 sol, in vitro): 0.9; isoTOP-ABPP reactivity ratio at lysine Q9UHY7_K111 ([2]; 50 uM, 231 sol, in vitro): 1.3; isoTOP-ABPP reactivity ratio at lysine P11413_K171 ([3]; 50 uM, 231 sol, in vitro): 0.9; isoTOP-ABPP reactivity ratio at lysine P02545_K135 (LMNA Prelamin-A/C; 50 uM, 231 sol, in vitro): 20.0 |
| O=C(CCc1ccc2c(c1)OCO2)Oc1ccc([N+](=O)[O-])cc1[N+](=O)[O-] [fragment 45, 2,4-Dinitrophenyl 3-(benzo[d][1,3]dioxol-5-yl)propanoate] |  |  |  |  | isoTOP-ABPP ratio, lysine P23381_K256 ([1]; 50 uM_231_sol_in vitro): 1.1; isoTOP-ABPP ratio, lysine Q9UHY7_K111 ([2]; 50 uM_231_sol_in vitro): 1.1; isoTOP-ABPP ratio, lysine P11413_K171 ([3]; 50 uM_231_sol_in vitro): 1.1; isoTOP-ABPP ratio, lysine P02545_K135 (LMNA Prelamin-A/C; 50 uM_231_sol_in vitro): 0.9 |
| O=C(CCc1coc2cc(F)ccc2c1=O)Oc1ccc([N+](=O)[O-])cc1[N+](=O)[O-] [fragment 36, 2,4-Dinitrophenyl 3-(7-fluoro-4-oxo-4H-chromen-3-yl)propanoate] | 1.0 | 0.9 | 1.0 | 0.8 |  |
| COC(=O)NC(=NC(=O)OCC1c2ccccc2-c2ccccc21)n1cccn1 [fragment 49, N-Methoxycarbonyl-N′-9-fluorenylmethoxycarbonyl-pyrazole-1-carboxamidine] |  |  |  |  | isoTOP-ABPP ratio, lysine P23381_K256 ([1]; 100 uM_231_sol_in vitro): 1.0; isoTOP-ABPP ratio, lysine Q9UHY7_K111 ([2]; 100 uM_231_sol_in vitro): 20.0; isoTOP-ABPP ratio, lysine P11413_K171 ([3]; 100 uM_231_sol_in vitro): 1.2; isoTOP-ABPP ratio, lysine P02545_K135 (LMNA Prelamin-A/C; 100 uM_231_sol_in vitro): 1.1 |
| O=C(CC12CC3CC(CC(C3)C1)C2)Oc1ccc([N+](=O)[O-])cc1[N+](=O)[O-] [fragment 38, 2,4-Dinitrophenyl 2-(adamantan-1-yl)acetate] | 1.4 | 1.1 | 0.9 | 0.8 |  |
| Cn1cc(CC(=O)Oc2c(F)c(F)c(F)c(F)c2F)c2ccccc21 [fragment 22, Pentafluorophenyl 2-(1-methyl-1H-indol-3-yl)acetate] |  |  |  |  | R value (DMSO/fragment) for probe 1 labeling ([1]; P23381_K256, 50 uM, 231 sol, in vitro): 1.0; R value (DMSO/fragment) for probe 1 labeling ([2]; Q9UHY7_K111, 50 uM, 231 sol, in vitro): 1.4; R value (DMSO/fragment) for probe 1 labeling ([3]; P11413_K171, 50 uM, 231 sol, in vitro): 0.7; R value (DMSO/fragment) for probe 1 labeling (LMNA Prelamin-A/C; P02545_K135, 50 uM, 231 sol, in vitro): 1.0 |
| O=C(Oc1ccc([N+](=O)[O-])cc1[N+](=O)[O-])c1ccc2ccccc2n1 [fragment 35, 2,4-Dinitrophenyl quinoline-2-carboxylate] | 1.1 | 1.0 | 1.7 | 0.7 |  |
